# Measured values from paper PMC6891695, “Evaluation of Antifouling Potential and Ecotoxicity of Secondary Metabolites Derived from Red Algae of the Genus Laurencia” (Marine Drugs, 2019).
# Read-outs that look alike come from different tables or passages of the source.
# Columns and labels:
# in vivo = format: in vivo; settings: Amphibalanus amphitrite, in vivo, read-out: LC50 Mortality; for LC50 at 24 h: 24 h exposure; for LC50 at 48 h: 48 h exposure; for LC50 at 72 h: 72 h exposure
# Protocol: (§1) Adult A. amphitrite (Cirripedia, Balanidae) were collected from boat docks at Port Mikrolimano and Floisvos, Athens, Greece. Animals were cleaned of epibionts with a small hard brush and meticulously identified as individuals of the species. Adult barnacles were kept in separate aerated glass tanks (20 L) containing 200-μm filtered natural seawater at 27 °C and a 12:12 L:D photoperiod. Tanks were fed with 24-h hatched Artemia sp. (Branchiopoda) nauplii and Tetraselmis suecica (Chlorodendrophyceae) and Skeletonema costatum (Bacillariophyceae) algae each day and seawater was changed on alternate days. Upon stress to induce oviposition (exposure to air for 24 h or immersion in fresh water for 5 h), adults were returned to seawater for larval release. Hatched nauplii were attracted to a point light source, collected and placed into a beaker containing 2 or 3 L of 0.7 μm GF/F (GE Healthcare, Little Chalfont, UK )-filtered natural seawater at a density of approximately 1–2 nauplii/mL with gentle aeration. Nauplii were maintained at 27 °C at a 12:12 L:D photoperiod on a diet of C. gracilis (Bacillariophyceae) provided at a density of 2 × 10^5 cells/mL. Cultured in these conditions, nauplii metamorphosed to cyprids in 5 days. Aliquots of these cyprids were collected with a wide-mouthed Pasteur pipette and aged at 4 °C for 1 day prior to use in settlement assays. Only batches of cyprids that were active and had numerous oil cells, representing energy reserves, were used in settlement assays.
# (§2) Assays were conducted by adding 10 cyprids into individual wells of a 24-well polystyrene sterile microplate (Orange Scientific, Braine l’Alleud, Belgium) with 2 mL of artificial sea water (ASW) (25‰) and various concentrations of the chemical compounds as listed in Table 1. These experiments were repeated at least three times with four replicates for each concentration of any given compound (n = 120 cyprids/compound). Stock solutions for all compounds were prepared in methanol (Scharlab, Barcelona, Spain) and serial dilutions were prepared in 0.7 μm (GF/F, GE Healthcare, Little Chalfont, UK), filtered sea water to have a final concentration of 2.5% methanol in each assay solution. Plates were covered and sealed with Parafilm® to avoid evaporation and incubated at 25 °C away from any light source and examined after 24, 48 and 72 h. Each animal was inspected under a stereomicroscope and its condition was recorded. […] Both permanently attached and metamorphosed individuals were counted as settled or juveniles. The remainder were counted as ‘no metamorphosis’, i.e. animals that responded to light touch and were still cyprids at the end of the experiments with no overt signs of metamorphosis.
# (§3) For EC50 or IC50 (the concentration that results in 50% stimulation or inhibition relative to the control) calculations in GraphPad Prism v.6, all data were fitted to the curve according to the following models for normalized response: Y = 100/(1 + 10^((X − LogIC50))) or Y = 100/(1 + 10^((LogEC50 − X))) depending on the trend of the curve.
# cyprids of A. amphitrite = test: whole plant or invertebrate; format: in vivo; settings: for EC50 / IC50: Amphibalanus amphitrite; for EC50: read-out: EC50 No Metamorphosis; for EC50 values for settlement inhibition of barnacle cyprids (in words): consistently, 24-72 h
# Protocol: as §1, §2, §3
# HEK293 cell line [1] = test: HEK293 alamar blue/resazurin assay (mitochondria function); format: cell-based, human; settings: for EC50: Homo sapiens, HEK293, Alamar blue/Resazurin assay, 48 h incubation; for effect on mitochondrial function and metabolism (in words): HEK293
# Protocol: (§4) The RTL-W1 cell line, a non-transformed rainbow trout liver cell line that has already been used in environmental toxicity assays, was established from the normal liver of an adult rainbow trout by proteolytic dissociation of liver fragments. RTL-W1 cells were cultured in 75 cm^2 culture flasks (Orange Scientific, Braine l’Alleud, Belgium) at 20 °C in Leibovitz’s (L-15, Sigma-Aldrich, St. Louis, MO, USA) medium supplemented with 5% fetal bovine serum (FBS) and 1% L-glutamine in CO2-free incubator. For the cytotoxicity assays of the selected secondary metabolites, cells were seeded at 3 × 10^4 cells/well density in a 96-well tissue culture plate (Orange Scientific Braine l’Alleud, Belgium) in 100 μL culture medium/well for 2 days before the assays. Three different cytotoxicity protocols were used: 1) The alamar blue/resazurin fluorometric/colorimetric cell viability assay to assess the metabolic capacity and mitochondrial function; 2) the crystal violet cell viability assay for indirect quantification of cell death; and 3) the neutral red cell proliferation assay for lysosomal activity. Two days after seeding the cells, cultures were incubated with various concentrations of selected secondary metabolites at 20 °C for 48 h before cell viability was assessed. […] For the alamar blue/resazurin fluorometric/colorimetric cell viability assay, 100 μL of 3 μg/100 μL Resazurin sodium salt (Sigma-Aldrich, St. Louis, MO, USA) in incubation medium was added on each well and incubated under sterile conditions at 20 °C for 4 h. For the crystal violet cell viability assay, after 48 h of incubation with each secondary metabolite, the culture medium was aspirated and cells were washed twice with sterile dd. H2O. The final wash was aspirated and 50 μL of 0.5% (w/v) crystal violet staining solution (20% methanol in dd. H2O) was added to each well followed by incubation for 20 min at room temperature on a bench rocker with a frequency of 20 oscillations per minute. The staining solution was then aspirated and the plate was washed four times with sterile dd. H2O and left to air-dry without its lid for 3 h at room temperature. Next, 200 μL of methanol was added to each well, and the plate was incubated with its lid on for 20 min at room temperature on a bench rocker with a frequency of 20 oscillations per minute. For the neutral red cell proliferation assay, after 48 h of incubation with each secondary metabolite, the culture medium was aspirated and cells were washed twice with phosphate-buffered saline (PBS, pH 7.4). Cells were then incubated with 100 μL of a 40 μg/mL neutral red staining solution in culture medium at 20 °C for 4 h followed by two washes with 150 μL of PBS. Then cells were incubated with 100 μL neutral red destain solution (50% ethanol, 49% dd. H2O, 1% glacial acetic acid) for 10 min on a bench rocker with a frequency of 80 oscillations per minute. Absorbance was read at 570 nm for alamar blue/resazurin and crystal violet and at 540 nm for neutral red using a Tecan infinite M200 Pro microplate reader. For each assay and each secondary metabolite, a minimum of four independent dose–response experiments with three replicates each were carried out. Calculations were carried out using detailed formulas (AbCam, Cambridge, UK, and results were analyzed with GraphPad Prism v.6.
# (§5) HEK293 cells, a human embryotic kidney cell line, were obtained from ATCC (ATCC® CRL-1573™) at passage 37 of the original clone and used at passage 38. Cells were cultured routinely in 75 cm^2 culture flasks (Orange Scientific, Braine l’Alleud, Belgium) at 37 °C (5% CO2) in DMEM cell culture medium (Biosera) supplemented with 10% FBS (Sigma-Aldrich, St. Louis, MO, USA) and 1% L-glutamine. All assay conditions and protocols were identical to those described above for RTL-W1 cells with the exception that incubations were carried out at 37 °C. […]
# HEK293 cell line [2] = test: HEK293 crystal violet assay (cell viability); format: cell-based, human; settings: for cytotoxicity in crystal violet assay (in words): HEK293; for EC50: Homo sapiens, HEK293, Crystal violet assay, 48 h incubation
# Protocol: as §4, §5
# [3] = 24 h, read-out: IC50 Settlement
# [4] = 48 h, read-out: IC50 Settlement
# [5] = 72 h, read-out: IC50 Settlement
SMILES,LC50 at 24 h (in vivo) [µM],LC50 at 48 h (in vivo) [µM],LC50 at 72 h (in vivo) [µM],EC50 (cyprids of A. amphitrite; 24 h) [µM],IC50 (cyprids of A. amphitrite; [3]) [µM],EC50 (cyprids of A. amphitrite; 48 h) [µM],IC50 (cyprids of A. amphitrite; [4]) [µM],EC50 (cyprids of A. amphitrite; 72 h) [µM],IC50 (cyprids of A. amphitrite; [5]) [µM],animals not progressing to metamorphosis (cyprids of A. amphitrite; in vivo),EC50 (HEK293 cell line [1]) [µM],cytotoxicity in crystal violet assay (in words) (HEK293 cell line [2]),EC50 (HEK293 cell line [2]) [µM],IC50 (cyprids of A. amphitrite; read-out: IC50 settlement-inhibiting activity) [µM],EC50 values for settlement inhibition of barnacle cyprids (in words) (cyprids of A. amphitrite),effect on mitochondrial function and metabolism (in words) (HEK293 cell line [1])
"CC(C)[C@@H]1CC=C[C@H]2[C@H]3[C@](C)(CC[C@]12CBr)[C@@H](Br)CC[C@@]3(C)O [Bromosphaerol, reference compound]",17.9,4.57,2.5,0.45,0.58,0.267,0.624,0.561,0.836,large percentage of animals not progressing to metamorphosis,57.6,mild cytotoxicity,97.1,–,–,–
"CC1=C2CC[C@@](C)(Cl)[C@@H](Br)C[C@]2(C)[C@@H](C)[C@@H](Br)[C@@H]1O [Compound 9, perforenol]",76.2,116,49.1,38.2,0.52,47.4,0.66,57.8,0.5,–,10.8,mild cytotoxicity,81.1,~0.5,sub-micromolar,–
C=CC(C)(O)CC[C@@H]1C(=C)CC[C@@H](Br)[C@@]1(C)CCC1OC1(C)C (some centres unmarked) [Compound 18],26.2,26.3,20.3,45.4,0.046,50.4,0.076,48.5,0.316,–,0.225,–,> 1000,–,sub-micromolar,very selective against mitochondrial function and metabolism
"C=C(C1CCC(C)(O)C(Br)C1)C1C(Br)C2C(CCC2(C)O)C1(C)C (centres unmarked) [Compound 19, neorogioldiol]",413,366,573,52.8,0.4,57.9,0.915,70.4,0.756,–,0.062,–,434,–,sub-micromolar,very selective against mitochondrial function and metabolism
